Test results as given in PubChem BioAssay (NCI).
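Test compounds were applied to cells in 96-well plates for 48 hours at 5 doses. Definition used: TGI = concentration required for complete inhibition of growth.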

Assays:
Experiment in all cases: NCI-60 cell line screen, 48 h
M14 melanoma = test system: M14 melanoma
MOLT-4 leukemia = test system: MOLT-4 leukemia
MALME-3M melanoma = test system: MALME-3M melanoma
K-562 leukemia = test system: K-562 leukemia
DLD-1 colon = test system: DLD-1 colon
ACHN renal = test system: ACHN renal
LXFL 529 NSCLC = test system: LXFL 529 NSCLC
NCI-H226 lung = test system: NCI-H226 lung
SF-539 CNS = test system: SF-539 CNS
SNB-75 CNS = test system: SNB-75 CNS
SK-OV-3 ovarian = test system: SK-OV-3 ovarian
SN12C renal = test system: SN12C renal
M19-MEL melanoma = test system: M19-MEL melanoma
XF 498 CNS = test system: XF 498 CNS
786-0 renal = test system: 786-0 renal
DMS 114 small cell lung = test system: DMS 114 small cell lung
HOP-92 NSCLC = test system: HOP-92 NSCLC
NCI-H23 lung = test system: NCI-H23 lung
RPMI-8226 leukemia = test system: RPMI-8226 leukemia
HOP-62 NSCLC = test system: HOP-62 NSCLC
SK-MEL-2 melanoma = test system: SK-MEL-2 melanoma
HCC-2998 colon = test system: HCC-2998 colon
UACC-62 melanoma = test system: UACC-62 melanoma
DMS 273 small cell lung = test system: DMS 273 small cell lung
SF-268 CNS = test system: SF-268 CNS
SNB-78 CNS = test system: SNB-78 CNS
SR leukemia = test system: SR leukemia
NCI-H522 lung = test system: NCI-H522 lung
IGROV1 ovarian = test system: IGROV1 ovarian
UO-31 renal = test system: UO-31 renal
CAKI-1 renal = test system: CAKI-1 renal
SK-MEL-28 melanoma = test system: SK-MEL-28 melanoma
CCRF-CEM leukemia = test system: CCRF-CEM leukemia
OVCAR-4 ovarian = test system: OVCAR-4 ovarian
A498 renal = test system: A498 renal
COLO 205 colon = test system: COLO 205 colon
HCT-116 colon = test system: HCT-116 colon
HL-60(TB) leukemia = test system: HL-60(TB) leukemia
HCT-15 colon = test system: HCT-15 colon
NCI-H460 lung = test system: NCI-H460 lung
MDA-MB-435 = test system: MDA-MB-435
SF-295 CNS = test system: SF-295 CNS
RXF 393 renal = test system: RXF 393 renal
HT29 colon = test system: HT29 colon
HS 578T breast = test system: HS 578T breast
SNB-19 CNS = test system: SNB-19 CNS
LOX IMVI melanoma = test system: LOX IMVI melanoma
U251 CNS = test system: U251 CNS
NCI/ADR-RES ovarian = test system: NCI/ADR-RES ovarian
OVCAR-5 ovarian = test system: OVCAR-5 ovarian
BT-549 breast = test system: BT-549 breast
MDA-MB-231 breast = test system: MDA-MB-231 breast
PC-3 prostate = test system: PC-3 prostate
T-47D breast = test system: T-47D breast
TK-10 renal = test system: TK-10 renal
KM12 colon = test system: KM12 colon
A549 NSCLC = test system: A549 NSCLC
EKVX NSCLC = test system: EKVX NSCLC
MCF7 breast = test system: MCF7 breast
DU-145 prostate = test system: DU-145 prostate
SW-620 colon = test system: SW-620 colon
OVCAR-3 ovarian = test system: OVCAR-3 ovarian
MDA-N = test system: MDA-N
UACC-257 melanoma = test system: UACC-257 melanoma

COc1ccc(/C=N/Nc2nc(C)c3c(n2)Nc2ccccc2NC3=O)cc1
TGI (M14 melanoma): > 100 µM | TGI (MOLT-4 leukemia): > 100 µM | TGI (MALME-3M melanoma): > 100 µM | TGI (K-562 leukemia): > 100 µM | TGI (DLD-1 colon): > 100 µM | TGI (ACHN renal): > 100 µM | TGI (LXFL 529 NSCLC): > 100 µM | TGI (NCI-H226 lung): > 100 µM | TGI (SF-539 CNS): > 100 µM | TGI (SNB-75 CNS): > 100 µM | TGI (SK-OV-3 ovarian): > 100 µM | TGI (SN12C renal): > 100 µM | TGI (M19-MEL melanoma): > 100 µM | TGI (XF 498 CNS): > 100 µM | TGI (786-0 renal): > 100 µM | TGI (DMS 114 small cell lung): > 100 µM | TGI (HOP-92 NSCLC): > 100 µM | TGI (NCI-H23 lung): > 100 µM | TGI (RPMI-8226 leukemia): > 100 µM | TGI (HOP-62 NSCLC): > 100 µM | TGI (SK-MEL-2 melanoma): > 100 µM | TGI (HCC-2998 colon): > 100 µM | TGI (UACC-62 melanoma): > 100 µM | TGI (DMS 273 small cell lung): > 100 µM | TGI (SF-268 CNS): > 100 µM | TGI (SNB-78 CNS): > 100 µM | TGI (SR leukemia): > 100 µM | TGI (NCI-H522 lung): > 100 µM | TGI (IGROV1 ovarian): > 100 µM | TGI (UO-31 renal): > 100 µM | TGI (CAKI-1 renal): > 100 µM | TGI (SK-MEL-28 melanoma): > 100 µM | TGI (CCRF-CEM leukemia): > 100 µM | TGI (OVCAR-4 ovarian): > 100 µM | TGI (A498 renal): > 100 µM | TGI (COLO 205 colon): > 100 µM | TGI (HCT-116 colon): > 100 µM | TGI (HL-60(TB) leukemia): > 100 µM

N=C(c1cccs1)C1(N2CCCCC2)CCCCC1
TGI (HCT-15 colon): 29.7 µM | TGI (NCI-H460 lung): 30 µM | TGI (MDA-MB-435): 37.8 µM | TGI (SF-295 CNS): 39.7 µM | TGI (M14 melanoma): 47.4 µM | TGI (MOLT-4 leukemia): 30.9 µM | TGI (MALME-3M melanoma): 30.2 µM | TGI (RXF 393 renal): 29.5 µM | TGI (HT29 colon): 34.5 µM | TGI (HS 578T breast): > 100 µM | TGI (K-562 leukemia): 32 µM | TGI (SNB-19 CNS): 34.8 µM | TGI (ACHN renal): 30.5 µM | TGI (LOX IMVI melanoma): 47.9 µM | TGI (U251 CNS): 30 µM | TGI (NCI/ADR-RES ovarian): 44.7 µM | TGI (SK-OV-3 ovarian): 46.8 µM | TGI (SN12C renal): 88.6 µM | TGI (OVCAR-5 ovarian): 34.6 µM | TGI (BT-549 breast): 41.9 µM | TGI (786-0 renal): > 100 µM | TGI (HOP-92 NSCLC): 37.5 µM | TGI (MDA-MB-231 breast): 31 µM | TGI (NCI-H23 lung): 43.5 µM | TGI (RPMI-8226 leukemia): 33.8 µM | TGI (HOP-62 NSCLC): 47.8 µM | TGI (PC-3 prostate): 81.8 µM | TGI (SK-MEL-2 melanoma): 31.3 µM | TGI (T-47D breast): 27.1 µM | TGI (HCC-2998 colon): 27.1 µM | TGI (UACC-62 melanoma): 31 µM | TGI (SF-268 CNS): 50.8 µM | TGI (SR leukemia): 37.1 µM | TGI (TK-10 renal): 35.7 µM | TGI (KM12 colon): 34.6 µM | TGI (NCI-H522 lung): 30.9 µM | TGI (A549 NSCLC): 60.2 µM | TGI (IGROV1 ovarian): 39.6 µM | TGI (UO-31 renal): 30.5 µM | TGI (EKVX NSCLC): 41.3 µM | TGI (CAKI-1 renal): 32.9 µM | TGI (CCRF-CEM leukemia): 36.2 µM | TGI (OVCAR-4 ovarian): 54.9 µM | TGI (MCF7 breast): 30.5 µM | TGI (DU-145 prostate): 30.4 µM | TGI (A498 renal): 34 µM | TGI (SW-620 colon): 34.7 µM | TGI (HCT-116 colon): > 100 µM | TGI (OVCAR-3 ovarian): 30.3 µM | TGI (HL-60(TB) leukemia): 33.6 µM | TGI (MDA-N): > 100 µM | TGI (UACC-257 melanoma): 31.8 µM
